Reference: patent publication US20190002492A1, “DERIVATIVES OF ALLOPR[…] OF EPIALLOPR[…] USES THEREOF FOR TREATING A NEUROPATHOLOGICAL CONDITION” (UNIVERSITE DE STRASBOURG, priority 2011, published 2019)

Experiments:
[1] = test system: SH-SY5Y human neuroblastomas; assay: Neuroprotection against cell death caused by oxidizing stress (H2O2), MTT readout; format: cell-based; design: key to Neuroprotective effect against cell death caused by oxidizing stress: −: no effect; +: low effect; ++: high effect; +++: very high effect; conditions: H2O2 1 mM; for Neuroprotective effect against cell death caused by oxidizing stress: SH-SY5Y cultures, 24 or 48 hours, MTT; for Protection of human neuroblastomas from cell death caused by H2O2 (in words): SH-SY5Y
Experimental: (§1) The cellular model used to carry out the in vitro experiments is a line of human neuroblastomas called line SH-SY5Y.
(§2) The human neuroblastoma is a cultivated at 37° C. in a humidity saturated atmosphere, under 5% CO2 in a culture medium formed by DMEM with an added 10% (v/v) fetal calf serum, 5% (v/v) horse serum, 2 mM glutamax and 1% (v/v) of the penicillin/streptomycin mixture.
The human neuroblastomas were incubated with the culture medium alone or containing the chief inducing agent of oxidizing stress, hydrogen peroxide (H2O2), at various concentrations in order to determine the concentrations of H2O2 and the incubation times causing the death of a significant percentage of the cells. The neuroprotective properties of the BR053, BR338, BR297 and BR351 derivatives were determined by pretreating the SH-SY5Y cells with the culture medium alone or respectively containing the BR053, BR338, BR297 or BR351 derivative. After pretreatment, each of these categories of cells was integrated for 24 hours or 48 hours with the following solutions: (i) culture medium; (ii) culture medium containing only the BR053, BR338, BR297 or BR351 derivative; (iii) culture medium containing only H2O2 at a concentration of 1 mM, which causes a high percentage of cell death; (iv) culture medium containing both H2O2 (1 mM) and one of the BR053, BR338, BR297 or BR351 derivatives.
10 μl of a stock solution of tetrazolium, abbreviated MTT, at 3.6 mM was added in each well and the incubation continued in darkness for 5 h at 37° C. After cell lysis, spectrophotometer measurements at 595 nm were carried out to determine the survival and cell density under each of the conditions described above.

Sprague-Dawley rats [2] = assay: Von Frey filament test, painful neuropathy caused by vincristine; format: in vivo, rat; conditions: rats with vincristine neuropathy, 4 mg/kg i.p. every 2 days for 2 weeks
From the text: (§3) Adult male Sprague-Dawley rats weighing between 250 and 300 g were used. They came from the company Janvier (le Genest St. Isle, France). The care and handling of the animals were done in accordance with the guidelines from the Council of the European Community (86/609/EC) and in accordance with the ethical rules of the International Association for the Study of Pain. The protocol used to carry out the in vivo studies was subject to examination and authorization granted to Prof. Mensah-Nyagan's team by the Alsatian Department of the Veterinary Public Health Guide for the Care and Use of Laboratory Animals (Approval number 67-186). The rats were housed under standard conditions with a photoperiod of 12 h day/12 h night, with unlimited food and water. The animals spent one acclimatization week before being integrated into the experimental protocols. Each animal was examined daily to detect any signs of deterioration of its health condition, such as dramatic weight loss, a decrease in appetite during chemotherapy and pharmacological treatment.
Vincristine sulfate (VINC), purchased from Sigma-Aldrich (St. Louis, Mo., USA), was dissolved in a physiological saline solution (NaCl 0.9%) at 0.1 mg/ml and stored at 4° C. The saline solution (NaCl 0.9%) is used as excipient. The VINC is injected daily by intraperitoneal injection (i.p.), in 2 cycles of 5 days separated by 2 days off, at a concentration of 0.1 mg/kg/day. The control animals were injected by i.p. (1 ml/kg) with the excipient using a similar protocol.
(§4) The allopregnanolone in the derivatives according to the invention (BR053 and BR297) were diluted in a hydroxypropylcellulose (HPC) solution (0.3%) used as excipient. The curative treatment with allopregnanolone, BR053 or BR297 began 3 days after the vincristine cycles. Each of these compounds (allopregnanolone, BR053 or BR297) was administered by the intraperitoneal route at a dose of 4 mg/kg at a rate of one injection every 2 days. Thus, over the total duration of the in vivo experiments (14 days), each animal received 7 injections of excipient, allopregnanolone, BR053 or BR297, based on its group, at a dose of 4 mg/kg. The animals were sacrificed 24 hours after the last behavioral test (28th day) to remove tissues that will be used for later histology and electrophysiology studies.
(§5) The mechanical nociceptive sensitivity threshold was evaluated in rats placed in individual Plexiglas boxes (30×30×25 cm) mounted on a raised mesh support thereby allowing access to the surface or arch of the back feet. The presence of allodynia (exaggerated response following a normally […] stimulation) was measured using a series of calibrated von Frey filaments (1, 2, 4, 6, 8, 10, 15, 26, 100, 180 and 300 g; Stoelting, Wood Dale, Ill., USA), which were applied on the sole of the back foot of the animal with increasing force until the filament twisted. The filament was applied for a period of 1 to 2 seconds and the procedure was repeated 5 times at 4-5 second intervals. The withdrawal threshold of the foot was calculated by taking the average of […] repeated stimuli (in grams) that caused a reflex to withdraw the foot. Only vigorous and fast withdrawals of the foot were considered positive. In the experiments, the naïve animals never responded to the 4 g filament and responded 25-30% of the time to the 15 g filament.

[3] = test system: SH-SY5Y human neuroblastomas; assay: MTT assay of cell viability and density: effect on cell proliferation; format: cell-based; design: key to Effect on cell proliferation (neural proliferative effect): −: no effect; +: low effect; ++: high effect; +++: very high effect; conditions: SH-SY5Y cultures
Experimental: as §1, §2
The cellular viability and the density (or number of SH-SY5Y cells/cm^2) were determined using the MTT reduction assay. The MTT technique is a colorimetric test that measures the reduction of the tetrazolium salt (3-[4,5-dimethylthiazol-2-yl]-2,5-diphenyl tetrazolium bromide) in formazan by the succinate dehydrogenase present in the mitochondria of the living cells. The formazan forms blue crystals. Thus, after solubilization of the crystals, the measurement of the absorbance at 595 nm makes it possible to obtain absorbency values directly proportional to the number of viable cells and the cell density in the culture boxes.
The effects of derivatives BR053, BR338, BR297 and BR351 on cell proliferation were evaluated by comparing the number of viable cells and the cell density in the control culture boxes, treated only with the culture medium described in paragraph A1 above, and the culture boxes exposed to the culture medium with the added BR053, BR338, BR297 or BR351 derivatives.

Sprague-Dawley rats [4] = assay: Von Frey mechanical nociceptive sensitivity threshold in healthy animals not treated with vincristine; format: in vivo, rat; conditions: 4 mg/kg every 2 days for 2 weeks
From the text: as §3, §4
as §5, with “In the experiments, the naïve animals never responded to the 4 g filament and responded 25-30% of the time to the 15 g filament.” left out

Structure (SMILES) | Neuroprotective effect against cell death caused by oxidizing stress [1] | Protection of human neuroblastomas from cell death caused by H2O2 (in words) [1] | Effect on mechanical allodynia and mechanical hyperalgesia (Sprague-Dawley rats [2]) | Effect on cell proliferation (neural proliferative effect) [3] | Effect on the proliferation of human neuroblastomas (in words) [3] | Anti-nociceptive effect in healthy animals (Sprague-Dawley rats [4])
CC(=O)[C@H]1CCC2C3CC[C@H]4C[C@@H](O)CC[C@]4(C)C3CC(=O)[C@@]21C (stereo partly drawn) [BR053] | +++ | capable of protecting human neuroblastomas from the cell death | eliminates the symptoms | + | low effectiveness | does not cause any anti-nociceptive effect
C=CCO[C@H]1CC[C@]2(C)C3CC[C@@]4(C)C(CC[C@@H]4C(C)=O)C3CC[C@H]2C1 (stereo partly drawn) [BR297] | ++ | capable of protecting human neuroblastomas from the cell death | eliminates the symptoms | − | no effect | does not cause any anti-nociceptive effect
